Here are results for four molecules from ChEMBL document CHEMBL4725275, “Structural basis for the stabilization of amyloidogenic immunoglobulin light chains by hydantoins” (Bioorg Med Chem Lett, 2020).

The structures appear in SMILES notation. In brackets after ≈: the same amount, converted by molar mass. Activity calls are given as the source filed them. The rule behind the calls is not given here.

Data set [1] deals with Immunoglobulin lambda variable 6-57 (Homo sapiens) (UniProt P01721). Briefly: Binding affinity to AL patient derived full length IGLV6-57 assessed as protection against proteinase K-mediated digestion by measuring fraction remaining at 100 uM measured after 2 hrs by analytical size-exclusion chromatography.
Immunoglobulin lambda variable 6-57 (Homo sapiens), sequence (P01721 whole entry): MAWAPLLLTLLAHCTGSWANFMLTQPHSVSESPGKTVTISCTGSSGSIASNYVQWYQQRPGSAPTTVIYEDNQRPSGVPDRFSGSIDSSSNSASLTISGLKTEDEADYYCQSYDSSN
The species named for data set [2] is Homo sapiens. Briefly: Kinetic stabilization of AL patient derived recombinant full length IGLV6-57 C214S mutant assessed as induction of dimer formation at 100 uM by sedimentation velocity analytical ultracentrifugation.
Data set [3] can be described thus: Solubility of the compound. Type of data set: physicochemical.

As to `CC(C)C[C@@H]1NC(=O)N(CC(=O)Nc2ccc(C(F)(F)F)cc2)C1=O`, in data set [1], the result was Active. Same read-out and setting: the result for `CC(C)C[C@H]1NC(=O)N(CC(=O)Nc2ccc(C(F)(F)F)cc2)C1=O` reads “Active”. Consider `CCN(CC)c1ccc2c(C)cc(=O)oc2c1`, for which, in data set [2], the result was Active.

For `CC1CCCCC12NC(=O)N(CC(=O)Nc1ccc(C(F)(F)F)cc1)C2=O` (stereo not given), in data set [3], the concentration in solution (solubility) came to 100 µM (≈ 38.3 µg/mL). In data set [2], the outcome was Active.
